According to patent publication US20240246918A1, “COMPOUNDS AND COMPOSITIONS AS EIF4E INHIBITORS AND THE USES THEREOF” (Ribometrix, Inc., priority 2022, published 2024):

Columns and labels:
human eIF4E protein = target: T1, human eIF4E protein (Homo sapiens, UniProt P06730); test: Biochemical competitive binding assay (TR-FRET competition, EDA-m7GDP-ATTO-647N probe); details: read-out: hEIF4E TR-FRET IC50
T1 construct: purchased Novus NBP-45314
Method in brief: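 IC50 values come from 4-parameter fits of the normalized 665/620 nm TR-FRET ratio. Compound was first incubated 15 min with 4 nM recombinant His-eIF4E bound to 2.5 nM Eu-anti-His antibody, then 15 min with 5 nM m7GDP-ATTO-647N tracer, in pH 7.5 HEPES buffer with 100 mM KCl, Tween-20 and BSA.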

[1] = tested on: COLO 205 colorectal tumor cells; test: Tumor cell viability inhibition assay (CellTiter-Glo 2.0, 72 hours); format: cell-based; details: COLO 205 cell viability
Method in brief: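 IC50 derived by 4-parameter fitting after normalizing luminescence to DMSO and max-inhibition wells. Compounds tested as 11 concentrations in 4-fold steps on COLO 205 cells seeded at 1500 per well in RPMI-1640/10% FBS; ATP content measured with CellTiter-Glo 2.0 after 72 h.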

T1 sequence (P06730 whole entry): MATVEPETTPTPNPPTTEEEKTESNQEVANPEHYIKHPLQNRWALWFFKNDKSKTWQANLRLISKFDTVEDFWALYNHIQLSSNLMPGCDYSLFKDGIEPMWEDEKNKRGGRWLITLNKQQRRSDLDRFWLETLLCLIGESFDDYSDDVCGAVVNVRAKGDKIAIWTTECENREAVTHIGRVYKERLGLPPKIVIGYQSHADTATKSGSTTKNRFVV

SMILES	IC50 (human eIF4E protein)	IC50 ([1]; Homo sapiens, COLO 205, 72 h)	IC50 [1]
Cc1cc(-c2cc(Cl)ccc2OCCn2c(C)nc3c(c2=O)C[C@H](N2CCC4(CC2)COCCO4)CC3)c2scc(C(=O)O)c2n1 (single isomer, unassigned) [Compound 424]	< 0.1 µM	< 5 µM	–
Cc1cc(-c2cc(Cl)ccc2OCCn2c(C)nc3c(c2=O)C[C@@H](N2CCC4(CC2)COCCO4)CC3)c2scc(C(=O)O)c2n1 (single isomer, unassigned) [Compound 425]	< 0.1 µM	5 to 20 µM	–
Cc1cc(-c2cc(Cl)ccc2OCCn2c(C)nc3c(c2=O)C[C@H](N2CCC(c4cnn(C)c4)CC2)CC3)c2scc(C(=O)O)c2n1 (single isomer, unassigned) [Compound 426]	< 0.1 µM	5 to 20 µM	–
Cc1cc(-c2cc(Cl)ccc2OCCn2c(C)nc3c(c2=O)C[C@@H](N2CCC(c4cnn(C)c4)CC2)CC3)c2scc(C(=O)O)c2n1 (single isomer, unassigned) [Compound 427]	< 0.1 µM	< 5 µM	–
Cc1csc(C2CCN([C@H]3CCc4nc(C)n(CCOc5ccc(Cl)cc5-c5cc(C)nc6c(C(=O)O)csc56)c(=O)c4C3)CC2)n1 (single isomer, unassigned) [Compound 428]	< 0.1 µM	< 5 µM	–
Cc1csc(C2CCN([C@@H]3CCc4nc(C)n(CCOc5ccc(Cl)cc5-c5cc(C)nc6c(C(=O)O)csc56)c(=O)c4C3)CC2)n1 (single isomer, unassigned) [Compound 429]	< 0.1 µM	< 5 µM	–
Cc1cc(-c2cc(Cl)ccc2OCCn2c(C)nc3c(c2=O)C[C@H](N2CCC4(CC2)NC(=O)NC4=O)CC3)c2scc(C(=O)O)c2n1 (single isomer, unassigned) [Compound 430]	< 0.1 µM	< 5 µM	–
Cc1cc(-c2cc(Cl)ccc2OCCn2c(C)nc3c(c2=O)C[C@@H](N2CCC4(CC2)NC(=O)NC4=O)CC3)c2scc(C(=O)O)c2n1 (single isomer, unassigned) [Compound 431]	< 0.1 µM	< 5 µM	–
Cc1cc(-c2cc(Cl)ccc2OCCn2c(C)nc3c(c2=O)CC(N2CCC(C(F)(F)F)CC2)CC3)c2scc(C(=O)NS(C)(=O)=O)c2n1 (single isomer, unassigned) [Compound 432]	< 0.1 µM	< 5 µM	–
Cc1cc(-c2cc(Cl)ccc2OCCn2c(C)nc3c(c2=O)CC(N2CCC(C(F)(F)F)CC2)CC3)c2scc(C(=O)NS(C)(=O)=O)c2n1 (single isomer, unassigned) [Compound 433]	< 0.1 µM	–	< 5 µM
Cc1cc(-c2cc(Cl)ccc2OCCn2c(C)nc3c(c2=O)C[C@H](N2CCC(O)CC2)CC3)c2scc(C(=O)O)c2n1 (single isomer, unassigned) [Compound 434]	< 0.1 µM	< 5 µM	–
Cc1cc(-c2cc(Cl)ccc2OCCn2c(C)nc3c(c2=O)C[C@@H](N2CCC(O)CC2)CC3)c2scc(C(=O)O)c2n1 (single isomer, unassigned) [Compound 435]	< 0.1 µM	< 5 µM	–
Cc1cc(-c2cc(Cl)ccc2OCCn2c(C)nc3c(c2=O)C[C@H](N2CCCC[C@@H]2C)CC3)c2scc(C(=O)O)c2n1 (single isomer, unassigned) [Compound 436]	< 0.1 µM	< 5 µM	–
Cc1cc(-c2cc(Cl)ccc2OCCn2c(C)nc3c(c2=O)C[C@@H](N2CCCC[C@H]2C)CC3)c2scc(C(=O)O)c2n1 (single isomer, unassigned) [Compound 437]	< 0.1 µM	5 to 20 µM	–
Cc1cc(-c2cc(Cl)ccc2OCCn2c(C)nc3c(c2=O)C[C@H](N2CCC[C@]4(C2)CC4(F)F)CC3(C)C)c2scc(C(=O)O)c2n1 (single isomer, unassigned) [Compound 438]	< 0.1 µM	< 5 µM	–
Cc1cc(-c2cc(Cl)ccc2OCCn2c(C)nc3c(c2=O)C[C@H](N2CCC[C@@]4(C2)CC4(F)F)CC3(C)C)c2scc(C(=O)O)c2n1 (single isomer, unassigned) [Compound 439]	< 0.1 µM	< 5 µM	–
